Target: T1, SIRT1 (Homo sapiens, UniProt Q96EB6)
T1 sequence (Q96EB6 1-747): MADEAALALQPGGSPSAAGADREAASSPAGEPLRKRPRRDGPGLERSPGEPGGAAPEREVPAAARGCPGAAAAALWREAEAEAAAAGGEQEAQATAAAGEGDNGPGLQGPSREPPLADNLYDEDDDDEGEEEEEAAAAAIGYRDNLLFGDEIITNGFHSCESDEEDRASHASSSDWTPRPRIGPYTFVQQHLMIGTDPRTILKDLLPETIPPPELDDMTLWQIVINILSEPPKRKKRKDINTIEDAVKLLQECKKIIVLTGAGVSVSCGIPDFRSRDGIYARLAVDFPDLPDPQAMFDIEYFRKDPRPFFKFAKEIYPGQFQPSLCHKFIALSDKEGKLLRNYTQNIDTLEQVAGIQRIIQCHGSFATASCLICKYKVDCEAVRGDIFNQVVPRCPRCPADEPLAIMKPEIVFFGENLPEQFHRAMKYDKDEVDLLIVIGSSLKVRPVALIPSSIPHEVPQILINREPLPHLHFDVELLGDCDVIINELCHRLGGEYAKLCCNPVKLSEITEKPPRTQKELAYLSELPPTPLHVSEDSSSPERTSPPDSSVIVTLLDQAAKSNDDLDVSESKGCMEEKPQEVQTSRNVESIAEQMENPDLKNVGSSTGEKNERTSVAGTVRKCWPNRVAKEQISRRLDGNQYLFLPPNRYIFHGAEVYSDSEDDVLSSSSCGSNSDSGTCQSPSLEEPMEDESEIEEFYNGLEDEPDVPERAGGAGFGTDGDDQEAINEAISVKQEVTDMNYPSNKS
Assay: Mass spectrometry based SIRT1 deacetylation assay (activation)
Assay type: biochemical
Settings: 10 nM SIRT1, 0.5 μM peptide substrate, 120 μM βNAD+, 25 min at 25° C.
Summary of the method: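 Activation reported as EC1.5, the compound concentration producing 150% of DMSO-control deacetylation, plus maximum fold activation. Readout is mass-spectrometric ratio of deacetylated to acetylated p53-based peptide (0.5 μM) after 25 min, 25 °C, with 120 μM βNAD+ and 10 nM His-tagged human SIRT1, pH 8.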

Row | SMILES | EC1.5 (concentration of test compound that results in 150% activation of SIRT1) | % Fold Act. (percent maximum fold activation)
1 | O=C(Nc1cccc2ccc(-c3cccc(OC(F)(F)F)c3)nc12)c1cccc(F)c1 [Compound 21] | C (EC1.5>25 uM) | –
2 | O=C(Nc1cccc2ccc(-c3ccc(F)c(C(F)(F)F)c3)nc12)c1cnccn1 [Compound 157] | C (EC1.5>25 uM) | –
3 | O=C(Nc1cccc2ccc(-c3ccncc3)nc12)c1cnccn1 [Compound 155] | C (EC1.5>25 uM) | –
4 | O=S(=O)(Nc1cccc2ccc(-c3cccc(C(F)(F)F)c3)nc12)c1ccccn1 [Compound 273] | C (EC1.5>25 uM) | –
5 | O=C(Nc1cccc2ccc(-c3cccc(C(F)(F)F)c3)nc12)c1cc[nH]n1 [Compound 224] | A (EC1.5<1.0 uM) | A (Fold activation >200%)
6 | O=C(Nc1ccccn1)c1cccc2ccc(-c3cccnc3)nc12 [Compound 182] | A (EC1.5<1.0 uM) | B (Fold Activation <200%)
7 | Cc1noc(NC(=O)c2cccc3ccc(-c4cccc(C(F)(F)F)c4)nc23)c1C [Compound 82] | B (EC1.5 1-25 uM) | A (Fold activation >200%)
8 | O=C(Nc1cccnc1Cl)c1cccc2ccc(-c3cccc(C(F)(F)F)c3)nc12 [Compound 57] | B (EC1.5 1-25 uM) | B (Fold Activation <200%)
9 | O=C(Nc1cccc2ccc(-c3ccc(F)c(C(F)(F)F)c3)nc12)c1ccccc1 [Compound 170] | C (EC1.5>25 uM) | –

More lines, now with the values ahead:

Row | EC1.5 (concentration of test compound that results in 150% activation of SIRT1) | % Fold Act. (percent maximum fold activation) | SMILES
10 | C (EC1.5>25 uM) | – | FC(F)(F)c1cccc(-c2ccc3cccc(NCc4ccccn4)c3n2)c1 [Compound 136]
11 | C (EC1.5>25 uM) | – | N#Cc1cccc(-c2ccc3cccc(NC(=O)c4cscn4)c3n2)c1 [Compound 80]
12 | A (EC1.5<1.0 uM) | A (Fold activation >200%) | O=C(Nc1cccc2ccc(-c3cccc(C(F)(F)F)c3)nc12)c1cncs1 [Compound 220]
13 | A (EC1.5<1.0 uM) | A (Fold activation >200%) | Cc1cc(NC(=O)c2cccc3ccc(-c4cccc(C(F)(F)F)c4)nc23)sn1 [Compound 59]
14 | B (EC1.5 1-25 uM) | A (Fold activation >200%) | O=C(Nc1ncc(CN2CCCC2)s1)c1cccc2ccc(-c3cccc(C(F)F)c3)nc12 [Compound 262]
15 | C (EC1.5>25 uM) | – | O=C(Nc1nccs1)c1cc(F)cc2ccc(-c3cccc(C(F)(F)F)c3)nc12 [Compound 62]
16 | C (EC1.5>25 uM) | – | O=C(Nc1ccccn1)c1cccc2cnc(-c3cccc(C(F)(F)F)c3)nc12 [Compound 283]
17 | C (EC1.5>25 uM) | – | Fc1ccc(C(F)(F)F)cc1-c1ccc2cccc(NCc3cccnc3)c2n1 [Compound 167]
18 | C (EC1.5>25 uM) | – | O=C(Nc1cccnc1)c1cccc2ccc(-c3cccnc3)nc12 [Compound 183]
19 | B (EC1.5 1-25 uM) | A (Fold activation >200%) | O=C(Nc1ncnc2ccc(-c3cccc(C(F)(F)F)c3)nc12)c1cncs1 [Compound 300]
20 | C (EC1.5>25 uM) | – | Cc1cnc(NC(=O)c2cccc3ccc(-c4cccnc4)nc23)s1 [Compound 225]
21 | A (EC1.5<1.0 uM) | A (Fold activation >200%) | Cc1cncc(-c2ccc3cccc(C(=O)Nc4cccc(CN5CCOCC5)n4)c3n2)c1 [Compound 244]
22 | B (EC1.5 1-25 uM) | A (Fold activation >200%) | CS(=O)(=O)c1cncc(-c2ccc3cccc(NC(=O)c4cscn4)c3n2)c1 [Compound 229]
